Entries after “also recorded” stand apart in the source; their conditions may differ. Non-standard residues stand in square brackets, D forms with d. Residues, ends and D or L forms follow the SMILES beside them. No end group written: not given here. pGlu = O=C1CC[C@@H](C(=O)O)N1
Target: T1, AedaeACPR-I (Aedes aegypti, UniProt A0A2L0VBG2)
T1 construct: only the ACPR-I transcript yields a complete receptor protein which we functionally deorphanized; expressed in transfected cells; host or cells: CHO-K1 cells stably expressing aequorin, transient transfection with pcDNA3.1+
T1 sequence (A0A2L0VBG2 1-577): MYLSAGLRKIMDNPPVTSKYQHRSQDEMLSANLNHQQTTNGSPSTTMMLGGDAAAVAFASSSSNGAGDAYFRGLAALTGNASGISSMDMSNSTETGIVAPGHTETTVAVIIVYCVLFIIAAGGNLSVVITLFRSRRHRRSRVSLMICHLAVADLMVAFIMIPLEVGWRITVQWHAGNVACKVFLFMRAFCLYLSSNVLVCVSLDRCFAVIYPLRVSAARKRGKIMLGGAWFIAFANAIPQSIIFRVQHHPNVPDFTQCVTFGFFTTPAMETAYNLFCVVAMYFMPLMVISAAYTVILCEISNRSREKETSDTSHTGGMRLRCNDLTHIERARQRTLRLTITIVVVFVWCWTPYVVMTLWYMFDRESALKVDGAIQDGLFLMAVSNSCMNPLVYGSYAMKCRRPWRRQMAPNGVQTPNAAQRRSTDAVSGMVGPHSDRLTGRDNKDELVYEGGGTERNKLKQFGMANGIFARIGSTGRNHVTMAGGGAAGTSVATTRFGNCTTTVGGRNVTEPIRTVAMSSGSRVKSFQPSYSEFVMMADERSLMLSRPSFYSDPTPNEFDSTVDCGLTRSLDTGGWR
Assay: Heterologous receptor functional assay (aequorin bioluminescence) in CHO-K1 cells transiently expressing AedaeACPR-I
Type: cell-based
Conditions: for EC50: CHOK1-aeq cells transiently expressing AedaeACPR-I, peptide doses 10^-12 to 10^-5 M in quadruplicate, luminescence response, average of multiple independent biological replicates (four independent transfections); for Receptor activation (luminescence response): CHO-K1 aequorin cells transiently expressing AedaeACPR-I, doses 10^-12 to 10^-5 M
Protocol: Functional activation of AedaeACPR-I was assayed using a previously established cell culture system involving a recombinant Chinese hamster ovary (CHO)-K1 cell line stably expressing aequorin[35]. […] At 48 hours post-transfection, cells were detached from the culture flasks using Dulbecco’s phosphate buffered saline (DPBS; Wisent Corporation, St. Bruno, QC) containing 5 mM EDTA and resuspended in BSA medium (DMEM-F12 media containing 0.1% bovine serum albumin, 1X antimycotic-antibiotic) to a concentration of 10^6–10^7 cells/mL. Coelenterazine h (Promega, Madison, WI, USA) was added to the cells to a final concentration of 5 μM, and incubated for 3 hours in the dark at room temperature on a stirrer set at 200 rpm. The cell suspension was then diluted 10-fold and incubated at room temperature for an additional hour. Serial dilutions of peptide ligands (Table 1) were prepared in BSA medium (10^−5 to 10^−12 M), and loaded in quadruplicates into 96-well luminescence plates (Greiner Bio-One, Germany). All peptides were commercially synthesized (Genscript, Piscataway, NJ) at a purity >90% and were prepared in dimethyl sulfoxide at a stock concentration of 1 mM. Cells were loaded into each well with an automatic injector unit and luminescence was measured for 20 seconds using a Synergy 2 Multi-Mode Microplate Reader (BioTek, Winooski, VT, USA). BSA medium alone was utilized as a negative control and 5 × 10^−5 M ATP was used as a positive control, which acts on endogenously expressed purinoceptors[36],[37]. EC50 values were calculated in GraphPad Prism 7.02 (GraphPad Software, San Diego, USA) from dose-dependent curves from four independent transfections.
A heterologous receptor functional assay involving CHO-K1 cells was used to validate the cloned receptor as a bona fide ACP receptor. […] Our findings in this study are consistent with past reports, since similar binding specificity of ACP receptors has been observed previously in T. castaneum, A. gambiae, and R. prolixus with EC50 values reported in the low nanomolar range[17],[25]. Additionally, previous research in the aforementioned insects have also observed that the AKH receptors are not activated by ACP or corazonin peptides, and similarly, the corazonin receptors are not activated by ACP or AKH peptides[17],[25],[43],[44].
Figure 4 Functional heterologous receptor assay of CHO-K1 aequorin cells transiently expressing the AedaeACPR-I. (a) Dose dependent effect on the bioluminescence response (mean 0–15 s) after the addition of between 10^−12–10^−5 M doses of A. aegypti ACP, AKH and CRZ peptides. Luminescence is normalized to the BSA control and plotted relative to the maximal response (10^−5 M). […] (b) Kinetics of the bioluminescence response measured between 0–5 s, 6–10 s, and 11–20 s time intervals, following the addition of 1 × 10^−6 M of the above peptides normalized to vehicle control (BSA media). Luminescence is normalized to the BSA control and plotted relative to the maximal response (10^−5 M). Data represent the mean ± standard error (n = 4).

Row | Molecule | EC50 [µM] | Receptor activation (luminescence response) | Receptor activation (luminescence response) (listed as AedaePK1) | Receptor activation (luminescence response) (listed as AedaeCAPA-1)
1 | CC(C)[C@H](NC(=O)[C@@H]1CCC(=O)N1)C(=O)N[C@H](C(=O)N[C@@H](Cc1ccccc1)C(=O)N[C@@H](CO)C(=O)N[C@@H](CCCNC(=N)N)C(=O)N[C@@H](CC(=O)O)C(=O)N[C@@H](Cc1c[nH]c2ccccc12)C(=O)N[C@@H](CC(N)=O)C(=O)N[C@@H](C)C(N)=O)[C@@H](C)O [AedaeACP] ([pGlu]VTFSRDWNA-NH2) | 0.0103 | – | – | –
2 | CC(C)C[C@H](NC(=O)[C@@H]1CCC(=O)N1)C(=O)N[C@H](C(=O)N[C@@H](Cc1ccccc1)C(=O)N[C@H](C(=O)N1CCC[C@H]1C(=O)N[C@@H](CO)C(=O)N[C@@H](Cc1c[nH]c2ccccc12)C(N)=O)[C@@H](C)O)[C@@H](C)O [AedaeAKH] ([pGlu]LTFTPSW-NH2) | > 10 | no detectable luminescence indicative of receptor activation; also recorded: No receptor activation was detected | – | –
3 | C[C@@H](O)[C@H](NC(=O)[C@H](CC(N)=O)NC(=O)[C@H](Cc1c[nH]c2ccccc12)NC(=O)CNC(=O)[C@H](CCCNC(=N)N)NC(=O)[C@H](CO)NC(=O)[C@H](Cc1ccc(O)cc1)NC(=O)[C@H](CCC(N)=O)NC(=O)[C@H](Cc1ccccc1)NC(=O)[C@@H](NC(=O)[C@@H]1CCC(=O)N1)[C@@H](C)O)C(=O)N[C@@H](CC(N)=O)C(N)=O [AedaeCRZ] ([pGlu]TFQYSRGWNTN-NH2) | – | no detectable luminescence indicative of receptor activation; also recorded: No receptor activation was detected | – | –
4 | AGNSGANSGMWFGPRL-NH2 [AedaeCAPA-PK1] | > 10 | – | no detectable luminescence indicative of receptor activation; also recorded: No receptor activation was detected | –
5 | GPTVGLFAFPRV-NH2 [AedaeCAPA1] | > 10 | No receptor activation was detected | – | no detectable luminescence indicative of receptor activation

Source: PMC5794978, “Molecular identification, transcript expression, and functional deorphanization of the adipokinetic hormone/corazonin-related peptide receptor in the disease vector, Aedes aegypti” (Scientific Reports, 2018)
